{"source": "patent US20220023172A1", "about": "“COSMETIC COMPOSITIONS AND METHODS OF USE” (STC.UNM, priority 2018, published 2022)"}
{"smiles": "Cc1ccc(/C=C/c2ccc(F)cc2F)cc1", "values": [{"measurement": "melting point", "result": "72 to 73", "unit": "°C"}]}
{"smiles": "COc1cccc(/C=C/c2ccccc2OC)c1", "values": [{"measurement": "melting point", "result": "49 to 50", "unit": "°C"}]}
{"smiles": "Fc1ccc(/C=C/c2ccccc2F)cc1F", "values": [{"measurement": "melting point", "result": "85 to 86", "unit": "°C"}]}
{"smiles": "COc1ccc(/C=C/c2ccc(F)c(F)c2)cc1", "values": [{"measurement": "melting point", "result": "73 to 74", "unit": "°C"}]}
{"smiles": "COc1ccccc1/C=C/c1ccccc1F", "values": [{"measurement": "melting point", "result": "34 to 35", "unit": "°C"}]}
{"smiles": "COc1ccc(OC)c(/C=C/c2ccc(F)cc2)c1", "values": [{"measurement": "melting point", "result": "58 to 59", "unit": "°C"}]}
{"smiles": "Fc1ccc(F)c(/C=C/c2ccccc2F)c1", "values": [{"measurement": "melting point", "result": "79 to 81", "unit": "°C"}]}
{"smiles": "Fc1cccc(/C=C/c2ccc(F)cc2F)c1", "values": [{"measurement": "melting point", "result": "60 to 61", "unit": "°C"}]}
{"smiles": "COc1cccc(/C=C/c2ccc(C(F)(F)F)cc2)c1OC", "values": [{"measurement": "melting point", "result": "67 to 69", "unit": "°C"}]}
{"smiles": "Cc1ccc(/C=C/c2ccc(F)c(F)c2)cc1", "values": [{"measurement": "melting point", "result": "90 to 92", "unit": "°C"}]}
{"smiles": "COc1ccc(/C=C/c2cc(F)ccc2F)cc1", "values": [{"measurement": "melting point", "result": "109 to 110", "unit": "°C"}]}
{"smiles": "Fc1ccc(/C=C/c2cc(F)ccc2F)cc1", "values": [{"measurement": "melting point", "result": "76 to 77", "unit": "°C"}]}
{"smiles": "Fc1cccc(/C=C/c2cc(F)ccc2F)c1", "values": [{"measurement": "melting point", "result": "73 to 74", "unit": "°C"}]}
{"smiles": "COc1cccc(/C=C/c2ccc(C)cc2)c1OC", "values": [{"measurement": "melting point", "result": "38 to 40", "unit": "°C"}]}
{"smiles": "Fc1ccc(/C=C/c2ccccc2F)c(F)c1", "values": [{"measurement": "melting point", "result": "84 to 85", "unit": "°C"}]}
{"smiles": "Fc1cccc(/C=C/c2ccc(F)c(F)c2)c1", "values": [{"measurement": "melting point", "result": "48 to 49", "unit": "°C"}]}
{"smiles": "COc1cccc(/C=C/c2ccc(F)cc2)c1OC", "values": [{"measurement": "melting point", "result": "50 to 51", "unit": "°C"}]}
{"smiles": "COc1cccc(/C=C/c2cc(OC)ccc2OC)c1", "values": [{"measurement": "melting point", "result": "48 to 49", "unit": "°C"}]}
